Test results reported in PubChem BioAssay AID256 (DTP/NCI, 2004).
Inconclusive results and toxic doses are left out.

Test system: CD2F1 mice, L1210 leukemia ip, survival T/C
Assay: NCI In Vivo Anticancer Drug Screen. Data for tumor model L1210 Leukemia (intraperitoneal) in CD2F1 (CDF1) mice
Details: higher = longer survival
Procedure, shortened: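 Compound-dosed mice with transplantable tumor versus matched vehicle controls; endpoint ratio T/C reported.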

[1] = endpoint: mean survival time, dose: 100.0 mg/kg/injection, schedule: Q04DX003 (ip), vehicle: other
[2] = endpoint: mean survival time, dose: 200.0 mg/kg/injection, schedule: Q04DX003 (ip), vehicle: other
[3] = endpoint: mean survival time, dose: 100.0 mg/kg/injection, schedule: Q04DX003 (ip), vehicle: saline with Tween-80
[4] = endpoint: mean survival time, dose: 200.0 mg/kg/injection, schedule: Q04DX003 (ip), vehicle: saline with Tween-80
[5] = endpoint: mean survival time, dose: 100.0 mg/kg/injection, schedule: Q01DX001 (ip), vehicle: saline with Tween-80
[6] = endpoint: mean survival time, dose: 200.0 mg/kg/injection, schedule: Q01DX001 (ip), vehicle: saline with Tween-80
[7] = endpoint: mean survival time, dose: 400.0 mg/kg/injection, schedule: Q01DX001 (ip), vehicle: saline with Tween-80
[8] = endpoint: mean survival time, dose: 25.0 mg/kg/injection, schedule: Q01DX009 (ip), vehicle: saline with Tween-80
[9] = endpoint: mean survival time, dose: 50.0 mg/kg/injection, schedule: Q01DX009 (ip), vehicle: saline with Tween-80
[10] = endpoint: mean survival time, dose: 100.0 mg/kg/injection, schedule: Q01DX009 (ip), vehicle: saline with Tween-80
[11] = endpoint: mean survival time, dose: 200.0 mg/kg/injection, schedule: Q01DX009 (ip), vehicle: saline with Tween-80
[12] = endpoint: mean survival time, dose: 400.0 mg/kg/injection, schedule: Q01DX009 (ip), vehicle: saline with Tween-80
[13] = endpoint: mean survival time, dose: 100.0 mg/kg/injection, schedule: Q04DX002 (ip), vehicle: saline with Tween-80
[14] = endpoint: mean survival time, dose: 200.0 mg/kg/injection, schedule: Q04DX002 (ip), vehicle: saline with Tween-80
[15] = endpoint: mean survival time, dose: 100.0 mg/kg/injection, schedule: Q04DX002 (ip), vehicle: saline
[16] = endpoint: mean survival time, dose: 200.0 mg/kg/injection, schedule: Q04DX002 (ip), vehicle: saline
[17] = endpoint: mean survival time, dose: 400.0 mg/kg/injection, schedule: Q04DX002 (ip), vehicle: saline

SMILES: C1=CC2OC1c1ccccc12
- T/C [1]: 93 % of control
- T/C [2]: 98 % of control
- T/C (endpoint: mean survival time, dose: 400.0 mg/kg/injection, schedule: Q04DX003 (ip), vehicle: other): 93 % of control

SMILES: O=C1CC2c3[nH]c4ccccc4c3CCN2C2=C1CCCC2 (stereo not drawn)
- T/C [3]: 100 % of control
- T/C [4]: 103 % of control

SMILES: Cc1cc(NCCN(C(C)C)C(C)C)nc(Nc2nc3ccc(Cl)cc3[nH]2)n1
- T/C (endpoint: mean survival time, dose: 0.75 mg/kg/injection, schedule: Q01DX009 (ip), vehicle: saline with Tween-80): 103 % of control
- T/C (endpoint: mean survival time, dose: 1.5 mg/kg/injection, schedule: Q01DX009 (ip), vehicle: saline with Tween-80): 90 % of control
- T/C (endpoint: mean survival time, dose: 3.0 mg/kg/injection, schedule: Q01DX009 (ip), vehicle: saline with Tween-80): 106 % of control
- T/C (endpoint: mean survival time, dose: 6.25 mg/kg/injection, schedule: Q01DX009 (ip), vehicle: saline with Tween-80): 92 % of control
- T/C (endpoint: mean survival time, dose: 12.5 mg/kg/injection, schedule: Q01DX009 (ip), vehicle: saline with Tween-80): 92 % of control
- T/C [5]: 96 % of control
- T/C [6]: 96 % of control
- T/C [7]: 98 % of control

SMILES: Cc1ccc(Nc2nc(N)nc3c2ncn3C2OC(CO)C(O)C2O)cc1 (stereo not drawn)
- T/C (endpoint: mean survival time, dose: 12.5 mg/kg/injection, schedule: Q01DX005 (ip), vehicle: distilled water + Tween-80): 95 % of control
- T/C (endpoint: mean survival time, dose: 25.0 mg/kg/injection, schedule: Q01DX005 (ip), vehicle: distilled water + Tween-80): 90 % of control
- T/C (endpoint: mean survival time, dose: 50.0 mg/kg/injection, schedule: Q01DX005 (ip), vehicle: distilled water + Tween-80): 98 % of control
- T/C (endpoint: mean survival time, dose: 100.0 mg/kg/injection, schedule: Q01DX005 (ip), vehicle: distilled water + Tween-80): 108 % of control

SMILES: CCC(=O)OCC1OC(n2ccc(O)cc2=O)C(O)C1O (stereo not drawn)
- T/C (endpoint: median survival time, dose: 44.0 mg/kg/injection, schedule: Q01DX009 (ip), vehicle: saline + alcohol): 178 % of control
- T/C (endpoint: median survival time, dose: 67.0 mg/kg/injection, schedule: Q01DX009 (ip), vehicle: saline + alcohol): 174 % of control
- T/C (endpoint: median survival time, dose: 100.0 mg/kg/injection, schedule: Q01DX009 (ip), vehicle: saline + alcohol): 174 % of control
- T/C (endpoint: median survival time, dose: 150.0 mg/kg/injection, schedule: Q01DX009 (ip), vehicle: saline + alcohol): 153 % of control

SMILES: CCN(CC)CC(=O)Nc1c(C)cccc1C
- T/C [8]: 95 % of control
- T/C [9]: 95 % of control
- T/C [10]: 89 % of control
- T/C [3]: 95 % of control

SMILES: CCCCCCCCCCCCCCCCNCC(O)CN (stereo not drawn)
- T/C (endpoint: mean survival time, dose: 12.5 mg/kg/injection, schedule: Q04DX002 (ip), vehicle: saline): 95 % of control
- T/C (endpoint: mean survival time, dose: 25.0 mg/kg/injection, schedule: Q04DX002 (ip), vehicle: saline): 106 % of control
- T/C (endpoint: mean survival time, dose: 50.0 mg/kg/injection, schedule: Q04DX002 (ip), vehicle: saline): 103 % of control

SMILES: Clc1cccc(-n2ccnc2)c1
- T/C [10]: 109 % of control
- T/C [11]: 113 % of control

SMILES: COc1cc(C2c3cc4c(cc3[C@@H](OC3OC5CO[C@@H](C)OC5C(O)C3O)[C@H]3COC(=O)C23)OCO4)cc(OC)c1OC (stereo partly drawn)
- T/C (endpoint: median survival time, dose: 50.0 mg/kg/injection, schedule: Q01DX005 (ip), vehicle: saline): 164 % of control
- T/C (endpoint: median survival time, dose: 60.0 mg/kg/injection, schedule: Q01DX009 (ip), vehicle: saline): 161 % of control
- T/C (endpoint: median survival time, dose: 100.0 mg/kg/injection, schedule: Q01DX005 (ip), vehicle: saline): 211 % of control
- T/C (endpoint: median survival time, dose: 100.0 mg/kg/injection, schedule: Q01DX009 (ip), vehicle: saline): 277 % of control
- T/C (endpoint: median survival time, dose: 166.67 mg/kg/injection, schedule: Q01DX009 (ip), vehicle: saline): 297 % of control
- T/C (endpoint: median survival time, dose: 200.0 mg/kg/injection, schedule: Q01DX005 (ip), vehicle: saline): 211 % of control
- T/C (endpoint: median survival time, dose: 277.78 mg/kg/injection, schedule: Q01DX009 (ip), vehicle: saline): 86 % of control

SMILES: CCCOC(=O)c1ccc(N)cc1
- T/C [5]: 102 % of control
- T/C [6]: 104 % of control
- T/C [7]: 103 % of control

SMILES: CCOc1ccc(C(=O)OC(CN(CC)CC)c2ccccc2)cc1 (stereo not drawn)
- T/C (endpoint: mean survival time, dose: 25.0 mg/kg/injection, schedule: Q04DX003 (ip), vehicle: saline): 102 % of control
- T/C (endpoint: mean survival time, dose: 50.0 mg/kg/injection, schedule: Q04DX003 (ip), vehicle: saline): 102 % of control
- T/C (endpoint: mean survival time, dose: 100.0 mg/kg/injection, schedule: Q04DX003 (ip), vehicle: saline): 89 % of control

SMILES: CC(=O)CCC(=O)OCc1ccccc1
- T/C [8]: 102 % of control
- T/C [9]: 96 % of control
- T/C [10]: 108 % of control
- T/C [11]: 101 % of control
- T/C [12]: 98 % of control

SMILES: CCN(CC)C(=O)Nc1ccc(Cl)cc1
- T/C [13]: 104 % of control
- T/C [14]: 108 % of control

SMILES: O=C1/C(=C/c2ccccc2)C=C(c2ccccc2)N1Cc1ccccc1
- T/C (endpoint: mean survival time, dose: 25.0 mg/kg/injection, schedule: Q04DX002 (ip), vehicle: saline with Tween-80): 103 % of control
- T/C (endpoint: mean survival time, dose: 50.0 mg/kg/injection, schedule: Q04DX002 (ip), vehicle: saline with Tween-80): 100 % of control
- T/C [13]: 100 % of control

SMILES: S=C(S)Nc1cccc2ccccc12
- T/C [10]: 93 % of control
- T/C [11]: 97 % of control
- T/C [12]: 93 % of control

SMILES: CCS(=O)(=O)CCNCCS(=O)(=O)CC
- T/C [13]: 104 % of control
- T/C [14]: 93 % of control
- T/C (endpoint: mean survival time, dose: 400.0 mg/kg/injection, schedule: Q04DX002 (ip), vehicle: saline with Tween-80): 104 % of control

SMILES: O=[N+]([O-])C(CO)(CO)CO
- T/C (endpoint: mean survival time, dose: 100.0 mg/kg/injection, schedule: Q01DX009 (ip), vehicle: saline): 98 % of control
- T/C (endpoint: mean survival time, dose: 200.0 mg/kg/injection, schedule: Q01DX009 (ip), vehicle: saline): 96 % of control
- T/C (endpoint: mean survival time, dose: 400.0 mg/kg/injection, schedule: Q01DX009 (ip), vehicle: saline): 104 % of control

SMILES: S=C1NC(c2ccccc2)NC(c2ccccc2)S1 (stereo not drawn)
- T/C (endpoint: mean survival time, dose: 12.0 mg/kg/injection, schedule: Q04DX003 (ip), vehicle: other): 86 % of control
- T/C (endpoint: mean survival time, dose: 25.0 mg/kg/injection, schedule: Q04DX003 (ip), vehicle: other): 97 % of control
- T/C (endpoint: mean survival time, dose: 50.0 mg/kg/injection, schedule: Q04DX003 (ip), vehicle: other): 90 % of control

SMILES: CC(=O)OC1CC2(O)C3CCC4CC(O)CCC4(C)C3CCC2(C)C1C1=CC(=O)OC1 (stereo not drawn)
- T/C [5]: 98 % of control
- T/C [6]: 101 % of control

SMILES: CCCCCCCCCCNC(=O)C[n+]1cccc(C(=O)NCc2ccccc2)c1
- T/C (endpoint: mean survival time, dose: 12.5 mg/kg/injection, schedule: Q01DX009 (ip), vehicle: saline sonified): 90 % of control
- T/C (endpoint: mean survival time, dose: 12.5 mg/kg/injection, schedule: Q04DX003 (ip), vehicle: saline sonified): 104 % of control
- T/C (endpoint: mean survival time, dose: 25.0 mg/kg/injection, schedule: Q04DX003 (ip), vehicle: saline sonified): 104 % of control
- T/C (endpoint: mean survival time, dose: 50.0 mg/kg/injection, schedule: Q04DX003 (ip), vehicle: saline sonified): 101 % of control

SMILES: CN(C)c1nc(N)c2nonc2n1
- T/C (endpoint: mean survival time, dose: 12.5 mg/kg/injection, schedule: Q01DX005 (ip), vehicle: other): 97 % of control
- T/C (endpoint: mean survival time, dose: 25.0 mg/kg/injection, schedule: Q01DX005 (ip), vehicle: other): 97 % of control
- T/C (endpoint: mean survival time, dose: 50.0 mg/kg/injection, schedule: Q01DX005 (ip), vehicle: other): 92 % of control
- T/C (endpoint: mean survival time, dose: 100.0 mg/kg/injection, schedule: Q01DX005 (ip), vehicle: other): 97 % of control
- T/C (endpoint: mean survival time, dose: 200.0 mg/kg/injection, schedule: Q01DX005 (ip), vehicle: other): 95 % of control

SMILES: CCOC(=O)C(C)S(=O)(=O)O (stereo not drawn)
- T/C [15]: 91 % of control
- T/C [16]: 100 % of control
- T/C [17]: 100 % of control

SMILES: O=C1C(c2ccccc2)=C(c2ccccc2)CC1O (stereo not drawn)
- T/C [3]: 103 % of control
- T/C [4]: 91 % of control
- T/C (endpoint: mean survival time, dose: 400.0 mg/kg/injection, schedule: Q04DX003 (ip), vehicle: saline with Tween-80): 103 % of control

SMILES: Cc1ccc(NC(=O)ON(C)C)cc1
- T/C (endpoint: mean survival time, dose: 100.0 mg/kg/injection, schedule: Q04DX002 (ip), vehicle: other): 102 % of control

SMILES: NCCCN1CCCCC1
- T/C [15]: 102 % of control
- T/C [16]: 95 % of control
- T/C [17]: 102 % of control

SMILES: O=S1(=O)CC23CC=CCC2(CC=CC3)C1 (stereo not drawn)
- T/C [1]: 100 % of control
- T/C [2]: 102 % of control

SMILES: CN(C)N=C1CCCC1
- T/C (endpoint: mean survival time, dose: 50.0 mg/kg/injection, schedule: Q04DX003 (ip), vehicle: saline with Tween-80): 101 % of control
- T/C (endpoint: mean survival time, dose: 75.0 mg/kg/injection, schedule: Q01DX001 (ip), vehicle: saline): 98 % of control
- T/C [3]: 95 % of control
- T/C (endpoint: mean survival time, dose: 150.0 mg/kg/injection, schedule: Q01DX001 (ip), vehicle: saline): 100 % of control
- T/C [4]: 100 % of control
